Assays:
[1] = target: GSPT1 (Homo sapiens, UniProt P15170+Q96SW2); experiment: HiBiT degradation assay, GSPT1, Procedure A; type: cell-based; parameters: HiBit-GSPT1 KI HEK293(LgBit) Cells; host or cells: HEK293(LgBit) knock-in cells; conditions: six hours
Outline: (§1)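 Luminescence from HiBiT lytic detection reports remaining tagged protein after cells sit six hours at 37° C with compound across ten concentrations (10 μM down to 0.005 μM, 0.1% DMSO). A 4-parameter curve fit gives DC50 and Ymin.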

[2] = target: T1, CK1α (Homo sapiens, UniProt P48729+Q96SW2); experiment: HiBiT degradation assay, CK1α, Procedure A; type: cell-based; conditions: six hours
T1 construct: CSNK1A1-HiBit KI HEK293(LgBit) Cells; host or cells: HEK293(LgBit) knock-in cells
Outline: as §1

Sequence of GSPT1 (P15170 whole entry): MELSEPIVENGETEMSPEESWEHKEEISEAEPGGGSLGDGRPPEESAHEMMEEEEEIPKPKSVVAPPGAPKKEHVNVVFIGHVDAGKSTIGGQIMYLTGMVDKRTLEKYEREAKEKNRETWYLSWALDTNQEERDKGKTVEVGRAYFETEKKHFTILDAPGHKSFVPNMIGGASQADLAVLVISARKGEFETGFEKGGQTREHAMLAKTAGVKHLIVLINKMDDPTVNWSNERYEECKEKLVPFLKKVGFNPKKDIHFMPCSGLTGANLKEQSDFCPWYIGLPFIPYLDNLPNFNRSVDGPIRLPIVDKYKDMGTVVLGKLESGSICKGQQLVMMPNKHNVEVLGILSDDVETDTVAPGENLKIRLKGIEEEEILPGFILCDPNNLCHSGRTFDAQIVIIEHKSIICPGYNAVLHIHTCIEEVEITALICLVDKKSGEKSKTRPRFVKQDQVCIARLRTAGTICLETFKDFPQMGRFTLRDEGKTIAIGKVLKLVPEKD
Sequence of GSPT1 (Q96SW2 whole entry): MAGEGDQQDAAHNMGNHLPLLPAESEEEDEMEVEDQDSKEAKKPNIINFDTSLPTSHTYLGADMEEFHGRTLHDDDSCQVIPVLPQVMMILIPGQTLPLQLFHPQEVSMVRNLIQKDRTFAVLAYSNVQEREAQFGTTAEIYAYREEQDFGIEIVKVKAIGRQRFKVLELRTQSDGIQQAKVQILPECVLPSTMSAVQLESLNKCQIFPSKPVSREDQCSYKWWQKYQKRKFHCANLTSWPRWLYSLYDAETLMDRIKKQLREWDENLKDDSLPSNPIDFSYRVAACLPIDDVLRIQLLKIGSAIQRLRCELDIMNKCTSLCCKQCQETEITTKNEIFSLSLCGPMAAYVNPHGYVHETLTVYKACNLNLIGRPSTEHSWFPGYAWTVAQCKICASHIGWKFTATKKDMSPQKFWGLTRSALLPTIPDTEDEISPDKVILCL
Sequence of GSPT1 (Q16531 whole entry partner): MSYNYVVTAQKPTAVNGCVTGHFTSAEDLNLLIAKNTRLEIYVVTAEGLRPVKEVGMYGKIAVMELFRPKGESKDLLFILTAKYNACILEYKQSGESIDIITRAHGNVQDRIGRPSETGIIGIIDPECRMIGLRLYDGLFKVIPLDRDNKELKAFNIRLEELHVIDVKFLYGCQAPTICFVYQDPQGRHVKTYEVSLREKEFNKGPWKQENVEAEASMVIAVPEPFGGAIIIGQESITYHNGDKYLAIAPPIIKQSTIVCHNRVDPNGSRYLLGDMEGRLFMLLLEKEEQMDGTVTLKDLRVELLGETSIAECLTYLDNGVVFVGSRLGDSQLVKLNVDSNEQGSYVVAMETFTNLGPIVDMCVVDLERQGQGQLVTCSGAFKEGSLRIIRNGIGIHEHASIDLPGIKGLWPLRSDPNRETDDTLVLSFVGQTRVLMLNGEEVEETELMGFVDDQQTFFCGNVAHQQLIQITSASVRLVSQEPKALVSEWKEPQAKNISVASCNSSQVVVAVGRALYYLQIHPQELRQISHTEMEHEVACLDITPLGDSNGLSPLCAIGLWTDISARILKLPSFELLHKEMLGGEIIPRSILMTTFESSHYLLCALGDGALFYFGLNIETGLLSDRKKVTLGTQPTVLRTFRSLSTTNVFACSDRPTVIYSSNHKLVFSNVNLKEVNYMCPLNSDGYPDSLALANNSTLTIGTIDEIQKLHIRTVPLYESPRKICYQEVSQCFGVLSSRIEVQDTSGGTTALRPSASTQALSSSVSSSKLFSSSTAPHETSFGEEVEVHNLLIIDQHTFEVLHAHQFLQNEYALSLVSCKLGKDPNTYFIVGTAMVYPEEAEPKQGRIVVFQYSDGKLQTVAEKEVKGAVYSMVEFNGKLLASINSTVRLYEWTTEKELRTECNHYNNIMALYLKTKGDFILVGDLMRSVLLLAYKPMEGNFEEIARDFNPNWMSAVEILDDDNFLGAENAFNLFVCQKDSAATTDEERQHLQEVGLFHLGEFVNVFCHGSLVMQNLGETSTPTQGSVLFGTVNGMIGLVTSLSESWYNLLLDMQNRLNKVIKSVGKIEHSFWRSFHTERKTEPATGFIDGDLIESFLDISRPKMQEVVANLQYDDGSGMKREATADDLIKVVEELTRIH
T1 sequence (P48729 whole entry): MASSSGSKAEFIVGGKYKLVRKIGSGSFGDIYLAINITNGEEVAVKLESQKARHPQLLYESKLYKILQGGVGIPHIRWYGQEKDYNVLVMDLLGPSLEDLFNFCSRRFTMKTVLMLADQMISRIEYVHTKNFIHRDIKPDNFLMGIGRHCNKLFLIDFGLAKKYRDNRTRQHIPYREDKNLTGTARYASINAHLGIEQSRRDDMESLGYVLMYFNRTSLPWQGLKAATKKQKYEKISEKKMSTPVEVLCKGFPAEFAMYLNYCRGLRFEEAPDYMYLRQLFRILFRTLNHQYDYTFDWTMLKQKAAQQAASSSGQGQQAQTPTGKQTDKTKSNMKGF
T1 sequence (Q96SW2 whole entry): as the sequence (Q96SW2 whole entry) above
T1 sequence (Q16531 whole entry partner): as the sequence (Q16531 whole entry partner) above

| SMILES | DC50 [1] [nM] | GSPT1 Ymin [1] | CK1α Ymin [2] | DC50 [2] [nM] |
| --- | --- | --- | --- | --- |
| COc1ccsc1-c1c(-c2ccc3c(c2)CN(C2CCC(=O)NC2=O)C3=O)cnn1C (stereo not shown) [Example 473] | ≥ 25 | F (F = >75-100% remaining) | E (E = >25-75% remaining) | < 25 |
| Cn1ncc(-c2ccc3c(c2)CN(C2CCC(=O)NC2=O)C3=O)c1-c1c[nH]c2ccccc12 (stereo not shown) [Example 474] | ≥ 25 | F (F = >75-100% remaining) | D (D = >10- 25% remaining) | < 25 |
| Cn1ncc(-c2ccc3c(c2)CN(C2CCC(=O)NC2=O)C3=O)c1-c1cnn(C2CCC2)c1 (stereo not shown) [Example 475] | < 25 | F (F = >75-100% remaining) | E (E = >25-75% remaining) | ≥ 25 |
| Cn1ncc(-c2ccc3c(c2)CN(C2CCC(=O)NC2=O)C3=O)c1-c1ccc2c(c1)ncn2C (stereo not shown) [Example 476] | ≥ 25 | F (F = >75-100% remaining) | D (D = >10- 25% remaining) | ≥ 25 |
| Cn1ncc(-c2ccc3c(c2)CN(C2CCC(=O)NC2=O)C3=O)c1-c1ccc2c(c1)CCCO2 (stereo not shown) [Example 477] | ≥ 25 | F (F = >75-100% remaining) | C (C = 0-10% remaining) | < 25 |
| Cn1ncc(-c2ccc3c(c2)CN(C2CCC(=O)NC2=O)C3=O)c1-c1ccc2sccc2c1 (stereo not shown) [Example 478] | ≥ 25 | F (F = >75-100% remaining) | D (D = >10- 25% remaining) | < 25 |
| Cn1ncc(-c2ccc3c(c2)CN(C2CCC(=O)NC2=O)C3=O)c1-c1cccc(-n2cccn2)c1 (stereo not shown) [Example 479] | ≥ 25 | F (F = >75-100% remaining) | E (E = >25-75% remaining) | < 25 |
| Cn1ncc(-c2ccc3c(c2)CN(C2CCC(=O)NC2=O)C3=O)c1-c1cnn(Cc2ccccc2)c1 (stereo not shown) [Example 480] | ≥ 25 | F (F = >75-100% remaining) | E (E = >25-75% remaining) | ≥ 25 |
| Cc1c(-c2c(-c3ccc4c(c3)CN(C3CCC(=O)NC3=O)C4=O)cnn2C)cnn1-c1ccccc1 (stereo not shown) [Example 481] | < 25 | F (F = >75-100% remaining) | E (E = >25-75% remaining) | ≥ 25 |
| Cn1cnc(-c2ccc3c(c2)CN(C2CCC(=O)NC2=O)C3=O)c1-c1cccnc1 (stereo not shown) [Example 482] | < 25 | E (E = >25-75% remaining) | D (D = >10- 25% remaining) | < 25 |
| Cc1occc1-c1c(-c2ccc3c(c2)CN(C2CCC(=O)NC2=O)C3=O)ncn1C (stereo not shown) [Example 483] | < 25 | F (F = >75-100% remaining) | D (D = >10- 25% remaining) | < 25 |
| Cn1cnc(-c2ccc3c(c2)CN(C2CCC(=O)NC2=O)C3=O)c1-c1cnc(N)nc1 (stereo not shown) [Example 485] | ≥ 25 | F (F = >75-100% remaining) | E (E = >25-75% remaining) | ≥ 25 |
| COc1cncc(-c2c(-c3ccc4c(c3)CN(C3CCC(=O)NC3=O)C4=O)ncn2C)c1 (stereo not shown) [Example 486] | < 25 | F (F = >75-100% remaining) | D (D = >10- 25% remaining) | < 25 |
| CC(C)n1ccc(-c2c(-c3ccc4c(c3)CN(C3CCC(=O)NC3=O)C4=O)ncn2C)n1 (stereo not shown) [Example 487] | ≥ 25 | F (F = >75-100% remaining) | E (E = >25-75% remaining) | < 25 |
| Cn1cnc(-c2ccc3c(c2)CN(C2CCC(=O)NC2=O)C3=O)c1-c1ccc2occc2c1 (stereo not shown) [Example 489] | < 25 | E (E = >25-75% remaining) | C (C = 0-10% remaining) | < 25 |
| Cn1cnc(-c2ccc3c(c2)CN(C2CCC(=O)NC2=O)C3=O)c1-c1ccc2ncnn2c1 (stereo not shown) [Example 490] | ≥ 25 | F (F = >75-100% remaining) | E (E = >25-75% remaining) | ≥ 25 |
| CC(C)Cn1cc(-c2c(-c3ccc4c(c3)CN(C3CCC(=O)NC3=O)C4=O)ncn2C)cn1 (stereo not shown) [Example 491] | ≥ 25 | E (E = >25-75% remaining) | D (D = >10- 25% remaining) | < 25 |
| Cn1cnc(-c2ccc3c(c2)CN(C2CCC(=O)NC2=O)C3=O)c1-c1cnn(C(C)(C)C)c1 (stereo not shown) [Example 492] | ≥ 25 | F (F = >75-100% remaining) | F (F = >75-100% remaining) | ≥ 25 |
| Cn1cnc(-c2ccc3c(c2)CN(C2CCC(=O)NC2=O)C3=O)c1-c1ccc2cccnc2c1 (stereo not shown) [Example 493] | ≥ 25 | F (F = >75-100% remaining) | D (D = >10- 25% remaining) | < 25 |
